Measured values taken from patent US20010006697A1, “Composition and method for producing low cholesterol eggs” (priority 1997, published 2001).
Values joined by “and” are separate entries in the source; they are usually repeats but may differ in a detail not shown here. Equal values may be shown once. Read-outs that look alike come from different tables or passages of the source. Marks after values point to notes of the source that are not given here.

Key:
laying hens [1] = assay: Yolk cholesterol contents of eggs from statin-treated laying hens; assay type: in vivo, White Leghorn hens
Description: Agric. […] Hens were treated as described in Example 1. […] The eggs were hard-cooked, and the yolks were separated, weighed, and crumbled. […] Agric. […] Egg homogenate filtrates were analyzed for cholesterol as described in Rudel, L. L. and Morris, M. D., J. Lipid Res. 14:364-366 (1973).

laying hens [2] = assay: Egg production, egg weights and yolk weights of statin-treated laying hens; assay type: in vivo, White Leghorn hens
Description: Hens were treated as described in Example 1. Egg yolk was weighed as outlined in Example 2.

[3] = tested on: apolipoprotein B (apoB) mRNA; assay: Northern blot of liver mRNA: apoB; assay type: in vivo, White Leghorn hens; conditions: normalized by 18S rRNA; day 35
Source text: Endocrinol. […] Endocrinol.

laying hens [4] = conditions: 0.03% or 0.06% of diet; day 35
laying hens [5] = conditions: 0.03% or 0.06% of diet; day 35; remark: listed apart in the source
plasma VLDL particles [6] = conditions: day 35
plasma VLDL particles [7] = conditions: day 35; remark: listed apart in the source
[8] = tested on: microsomal triglyceride transport protein (MTP) large subunit mRNA; conditions: normalized by 18S rRNA; day 35
laying hens [9] = assay: Liver cholesterol content; conditions: day 35
[10] = Liver weight of statin-treated laying hens; conditions: day 35
[11] = 0.06% of diet, week 5 (maximal reduction for simvastatin, lovastatin)
[12] = 0.03% of diet, Overall (weeks 1-5)
[13] = 0.06% of diet, Overall (weeks 1-5)

CC[C@H](C)C(=O)O[C@H]1C[C@@H](C)C=C2C=C[C@H](C)[C@H](CC[C@@H]3C[C@@H](O)CC(=O)O3)[C@H]21 [Lovastatin]
Yolk cholesterol content, mg cholesterol/g yolk (laying hens [1]; 0.03% of diet, Week 0): 11.0 ± 0.2^a mg cholesterol/g yolk
Yolk cholesterol content, mg cholesterol/yolk (laying hens [1]; 0.03% of diet, Week 0): 195.7 ± 6.8^a mg cholesterol/yolk
Yolk cholesterol content, mg cholesterol/g yolk (laying hens [1]; 0.03% of diet, Week 1): 10.7 ± 0.2^b mg cholesterol/g yolk
Yolk cholesterol content, mg cholesterol/yolk (laying hens [1]; 0.03% of diet, Week 1): 192.2 ± 6.5^a mg cholesterol/yolk
Yolk cholesterol content, mg cholesterol/g yolk (laying hens [1]; 0.03% of diet, Week 2): 11.1 ± 0.2^a,b mg cholesterol/g yolk
Yolk cholesterol content, mg cholesterol/yolk (laying hens [1]; 0.03% of diet, Week 2): 193.8 ± 6.6^a mg cholesterol/yolk
Yolk cholesterol content, mg cholesterol/g yolk (laying hens [1]; 0.03% of diet, Week 3): 10.8 ± 0.2^b mg cholesterol/g yolk
Yolk cholesterol content, mg cholesterol/yolk (laying hens [1]; 0.03% of diet, Week 3): 192.3 ± 5.1^a mg cholesterol/yolk
Yolk cholesterol content, mg cholesterol/g yolk (laying hens [1]; 0.03% of diet, Week 4): 10.9 ± 0.2^a,b mg cholesterol/g yolk
Yolk cholesterol content, mg cholesterol/yolk (laying hens [1]; 0.03% of diet, Week 4): 193.9 ± 4.2^a mg cholesterol/yolk
Yolk cholesterol content, mg cholesterol/g yolk (laying hens [1]; 0.03% of diet, Week 5): 10.8 ± 0.1^b mg cholesterol/g yolk
Yolk cholesterol content, mg cholesterol/yolk (laying hens [1]; 0.03% of diet, Week 5): 193.6 ± 4.0^a,b mg cholesterol/yolk
Yolk cholesterol content, mg cholesterol/g yolk (laying hens [1]; 0.06% of diet, Week 0): 10.9 ± 0.1^a mg cholesterol/g yolk
Yolk cholesterol content, mg cholesterol/yolk (laying hens [1]; 0.06% of diet, Week 0): 197.8 ± 4.3^a mg cholesterol/yolk
Yolk cholesterol content, mg cholesterol/g yolk (laying hens [1]; 0.06% of diet, Week 1): 10.7 ± 0.1^b mg cholesterol/g yolk
Yolk cholesterol content, mg cholesterol/yolk (laying hens [1]; 0.06% of diet, Week 1): 185.5 ± 8.4^a,b mg cholesterol/yolk
Yolk cholesterol content, mg cholesterol/g yolk (laying hens [1]; 0.06% of diet, Week 2): 10.8 ± 0.1^b,c mg cholesterol/g yolk
Yolk cholesterol content, mg cholesterol/g yolk (laying hens [1]; 0.06% of diet, Week 3): 10.5 ± 0.1^b,c mg cholesterol/g yolk
Yolk cholesterol content, mg cholesterol/yolk (laying hens [1]; 0.06% of diet, Week 3): 184.6 ± 5.1^a,b mg cholesterol/yolk
Yolk cholesterol content, mg cholesterol/g yolk (laying hens [1]; 0.06% of diet, Week 4): 10.9 ± 0.2^a,b mg cholesterol/g yolk
Yolk cholesterol content, mg cholesterol/yolk (laying hens [1]; 0.06% of diet, Week 4): 187.1 ± 7.2^a,b mg cholesterol/yolk
Yolk cholesterol content, mg cholesterol/g yolk (laying hens [1]; 0.06% of diet, Week 5): 10.8 mg cholesterol/g yolk and 10.8 ± 0.1^b mg cholesterol/g yolk
Yolk cholesterol content, mg cholesterol/yolk (laying hens [1]; 0.06% of diet, Week 5): 186.9 mg cholesterol/yolk and 186.9 ± 4.3^a,b mg cholesterol/yolk
yolk cholesterol reduction from control on a per yolk (egg) basis (laying hens [1]; [11]): 7%
yolk cholesterol reduction from control per g of yolk (mg/g basis) (laying hens [1]; [11]): 7%
Egg weight, g (laying hens [2]; [12]): 65.0 ± 1.4^a (155) g
Hen-day egg production, % (laying hens [2]; [12]): 88.6 ± 2.4^a (155) %
Yolk weight, g (laying hens [2]; [12]): 17.7 ± 0.2^a (25) g
Egg weight, g (laying hens [2]; 0.03% of diet, Week 1): 64.9 ± 0.7^a g
Hen-day egg production, % (laying hens [2]; 0.03% of diet, Week 1): 91.4 ± 1.2^a %
Yolk weight, g (laying hens [2]; 0.03% of diet, Week 1): 17.9 ± 0.7^a g
Egg weight, g (laying hens [2]; 0.03% of diet, Week 2): 64.3 ± 0.8^a,b g
Hen-day egg production, % (laying hens [2]; 0.03% of diet, Week 2): 88.6 ± 1.0^a %
Yolk weight, g (laying hens [2]; 0.03% of diet, Week 2): 17.4 ± 0.8^a g
Egg weight, g (laying hens [2]; 0.03% of diet, Week 3): 65.1 ± 0.7^a g
Hen-day egg production, % (laying hens [2]; 0.03% of diet, Week 3): 85.7 ± 1.0^a %
Yolk weight, g (laying hens [2]; 0.03% of diet, Week 3): 17.8 ± 0.5^a g
Egg weight, g (laying hens [2]; 0.03% of diet, Week 4): 65.8 ± 0.6^a g
Hen-day egg production, % (laying hens [2]; 0.03% of diet, Week 4): 88.6 ± 1.8^a %
Yolk weight, g (laying hens [2]; 0.03% of diet, Week 4): 17.8 ± 0.4^a g
Egg weight, g (laying hens [2]; 0.03% of diet, Week 5): 64.7 ± 0.7^a g
Hen-day egg production, % (laying hens [2]; 0.03% of diet, Week 5): 88.6 ± 1.0^a %
Yolk weight, g (laying hens [2]; 0.03% of diet, Week 5): 17.8 ± 0.5^a g
effect on production variables (egg production, egg weight, yolk weight) (laying hens [2]; 0.03% or 0.06% of diet, P>0.05): did not affect
Egg weight, g (laying hens [2]; [13]): 63.8 ± 1.8^a (155) g
Hen-day egg production, % (laying hens [2]; [13]): 88.6 ± 2.9^a (155) %
Yolk weight, g (laying hens [2]; [13]): 17.4 ± 0.3^a (25) g
Egg weight, g (laying hens [2]; 0.06% of diet, Week 1): 62.6 ± 1.9^a g
Hen-day egg production, % (laying hens [2]; 0.06% of diet, Week 1): 88.6 ± 1.0^a,b %
Yolk weight, g (laying hens [2]; 0.06% of diet, Week 1): 17.4 ± 1.0^a g
Egg weight, g (laying hens [2]; 0.06% of diet, Week 2): 64.0 ± 0.7^a,b g
Hen-day egg production, % (laying hens [2]; 0.06% of diet, Week 2): 85.7 ± 1.5^a,b %
Yolk weight, g (laying hens [2]; 0.06% of diet, Week 2): 17.3 ± 0.7^a g
Egg weight, g (laying hens [2]; 0.06% of diet, Week 3): 65.3 ± 1.1^a g
Hen-day egg production, % (laying hens [2]; 0.06% of diet, Week 3): 88.6 ± 1.0^a %
Yolk weight, g (laying hens [2]; 0.06% of diet, Week 3): 17.7 ± 0.6^a g
Egg weight, g (laying hens [2]; 0.06% of diet, Week 4): 63.3 ± 0.8^b,c g
Hen-day egg production, % (laying hens [2]; 0.06% of diet, Week 4): 88.6 ± 1.8^a %
Yolk weight, g (laying hens [2]; 0.06% of diet, Week 4): 17.2 ± 0.9^a,b g
Egg weight, g (laying hens [2]; 0.06% of diet, Week 5): 62.9 ± 0.8^a,b g
Hen-day egg production, % (laying hens [2]; 0.06% of diet, Week 5): 91.4 ± 1.2^a %
Yolk weight, g (laying hens [2]; 0.06% of diet, Week 5): 17.3 ± 0.7^a g
hepatic apoB mRNA, linear contrasts (P≦0.05) [3]: control>lovastatin
effect on plasma total cholesterol (plasma lipid variables) (laying hens [4]): did not significantly affect
effect on plasma triglycerides (plasma lipid variables) (laying hens [5]): did not significantly affect
Plasma VLDL particle Diameter nm (plasma VLDL particles [6]; 0.03% of diet): 35.5 ± 0.1^a,b nm
Plasma VLDL particle Diameter nm (plasma VLDL particles [6]; 0.06% of diet): 34.8 ± 0.1^a,b nm
Plasma VLDL composition: EC (esterified cholesterol) (plasma VLDL particles [7]; 0.03% of diet): 0.06 ± 0.01^a,b %
Plasma VLDL composition: PC (phosphatidylcholine) (plasma VLDL particles [7]; 0.03% of diet): 11.99 ± 0.18^b %
Plasma VLDL composition: PE (phosphatidylethanolamine) (plasma VLDL particles [7]; 0.03% of diet): 3.76 ± 0.33^a %
Plasma VLDL composition: Protein (plasma VLDL particles [7]; 0.03% of diet): 17.37 ± 0.70^a %
Plasma VLDL composition: SM (sphingomyelin) (plasma VLDL particles [7]; 0.03% of diet): 1.08 ± 0.31^a %
Plasma VLDL composition: TG (triglyceride) (plasma VLDL particles [7]; 0.03% of diet): 62.78 ± 1.01^a %
Plasma VLDL composition: UC (unesterified cholesterol) (plasma VLDL particles [7]; 0.03% of diet): 2.94 ± 0.11^a %
Plasma VLDL composition: EC (esterified cholesterol) (plasma VLDL particles [7]; 0.06% of diet): 0.08 ± 0.02^a,b %
Plasma VLDL composition: PC (phosphatidylcholine) (plasma VLDL particles [7]; 0.06% of diet): 12.07 ± 0.82^b %
Plasma VLDL composition: PE (phosphatidylethanolamine) (plasma VLDL particles [7]; 0.06% of diet): 3.46 ± 0.93^a %
Plasma VLDL composition: Protein (plasma VLDL particles [7]; 0.06% of diet): 19.96 ± 1.32^a %
Plasma VLDL composition: SM (sphingomyelin) (plasma VLDL particles [7]; 0.06% of diet): 0.66 ± 0.23^a %
Plasma VLDL composition: TG (triglyceride) (plasma VLDL particles [7]; 0.06% of diet): 60.74 ± 1.22^a %
Plasma VLDL composition: UC (unesterified cholesterol) (plasma VLDL particles [7]; 0.06% of diet): 3.03 ± 0.34^a %
hepatic MTP large subunit mRNA, linear contrasts (P≦0.05) [8]: lovastatin>atorvastatin
Liver Cholesterol mg/g liver (laying hens [9]; 0.03% of diet): 3.0 ± 0.05^b,c mg/g liver
Liver Cholesterol mg/liver (laying hens [9]; 0.03% of diet): 95.7 ± 3.3^a mg/liver
Liver Cholesterol mg/g liver (laying hens [9]; 0.06% of diet): 3.1 ± 0.07^b mg/g liver
Liver Cholesterol mg/liver (laying hens [9]; 0.06% of diet): 90.2 ± 3.6^a mg/liver
Liver Weight g ([10]; 0.03% of diet): 31.4 ± 1.4^b g
Liver Weight g/100 g BW ([10]; 0.03% of diet): 1.81 ± 0.09^a,b g/100 g BW
Liver Weight g ([10]; 0.06% of diet): 28.8 ± 0.9^b,c g
Liver Weight g/100 g BW ([10]; 0.06% of diet): 1.76 ± 0.05^b g/100 g BW
